# Experimental data published in BindingDB's records for PubMed 1352553 (University of North Carolina, 1992).
# pKi: −log10 of the molar value. “And” between values parts separate entries of the source, which are not always exact repeats. Equal values may be shown once.
# What was measured:
# Adenosine kinase = Adenosine kinase (Rattus norvegicus, UniProt Q64640)
# [1] = biological target: 5-hydroxytryptamine receptor 2A (Rattus norvegicus, UniProt P14842)
# [2] = biological target: Gamma-aminobutyric acid (GABA) B receptor 1 (Rattus norvegicus, UniProt Q6MFX8)
# [3] = biological target: Alpha-1A adrenergic receptor (Rattus norvegicus, UniProt P43140)
# 5'-nucleotidase = 5'-nucleotidase (Rattus norvegicus, UniProt P21588)
# [4] = biological target: Gamma-aminobutyric acid receptor subunit alpha-1 (Rattus norvegicus, UniProt P62813)
# Adenylate cyclase type 3 = Adenylate cyclase type 3 (Rattus norvegicus, UniProt P21932)
# Sequence of Adenylate cyclase type 3 (P21932 whole entry): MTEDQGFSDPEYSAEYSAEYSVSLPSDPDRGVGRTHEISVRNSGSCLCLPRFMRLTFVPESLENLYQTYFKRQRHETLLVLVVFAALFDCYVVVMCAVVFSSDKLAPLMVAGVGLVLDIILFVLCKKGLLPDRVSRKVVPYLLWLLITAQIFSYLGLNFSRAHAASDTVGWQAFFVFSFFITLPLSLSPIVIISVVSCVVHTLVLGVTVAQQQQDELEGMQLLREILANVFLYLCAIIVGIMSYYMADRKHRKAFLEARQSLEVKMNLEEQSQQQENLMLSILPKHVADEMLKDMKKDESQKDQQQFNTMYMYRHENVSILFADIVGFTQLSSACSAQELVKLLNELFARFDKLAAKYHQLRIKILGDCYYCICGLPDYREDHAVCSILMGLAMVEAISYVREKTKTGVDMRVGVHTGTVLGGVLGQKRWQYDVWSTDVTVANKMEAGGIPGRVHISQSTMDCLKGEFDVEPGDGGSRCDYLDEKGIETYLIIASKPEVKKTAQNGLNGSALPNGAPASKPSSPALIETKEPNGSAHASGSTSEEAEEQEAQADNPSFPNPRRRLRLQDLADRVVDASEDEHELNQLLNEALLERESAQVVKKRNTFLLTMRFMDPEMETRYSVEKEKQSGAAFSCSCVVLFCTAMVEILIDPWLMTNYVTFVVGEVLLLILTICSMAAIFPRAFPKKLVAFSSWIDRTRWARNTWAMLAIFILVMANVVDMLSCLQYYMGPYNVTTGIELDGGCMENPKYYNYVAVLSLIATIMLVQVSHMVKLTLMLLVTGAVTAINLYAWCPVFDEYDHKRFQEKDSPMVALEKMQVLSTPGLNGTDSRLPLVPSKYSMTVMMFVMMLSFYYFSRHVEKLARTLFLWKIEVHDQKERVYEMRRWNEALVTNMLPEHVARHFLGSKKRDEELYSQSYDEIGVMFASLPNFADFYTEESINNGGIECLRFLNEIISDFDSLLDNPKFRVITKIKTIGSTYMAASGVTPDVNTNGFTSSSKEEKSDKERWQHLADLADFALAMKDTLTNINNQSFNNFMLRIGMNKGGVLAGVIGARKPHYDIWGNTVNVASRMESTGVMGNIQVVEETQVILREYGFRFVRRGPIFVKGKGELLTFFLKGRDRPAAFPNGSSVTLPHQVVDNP
# [5] = biological target: Alpha-2C adrenergic receptor (Rattus norvegicus, UniProt P22086)
# Sequence of Alpha-2C adrenergic receptor (P22086 whole entry): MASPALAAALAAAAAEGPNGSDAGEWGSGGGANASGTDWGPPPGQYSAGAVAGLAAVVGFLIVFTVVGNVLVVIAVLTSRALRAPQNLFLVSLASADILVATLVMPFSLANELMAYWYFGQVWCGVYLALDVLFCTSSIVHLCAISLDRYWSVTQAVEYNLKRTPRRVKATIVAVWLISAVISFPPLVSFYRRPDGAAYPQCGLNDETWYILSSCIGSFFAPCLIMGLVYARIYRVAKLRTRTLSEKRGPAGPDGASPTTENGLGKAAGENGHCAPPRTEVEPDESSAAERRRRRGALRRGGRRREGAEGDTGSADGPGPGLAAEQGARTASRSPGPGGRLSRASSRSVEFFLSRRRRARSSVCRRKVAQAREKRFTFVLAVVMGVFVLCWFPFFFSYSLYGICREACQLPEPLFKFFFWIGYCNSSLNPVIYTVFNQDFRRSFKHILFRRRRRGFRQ
# Natriuretic peptides A = Natriuretic peptides A (Rattus norvegicus, UniProt P01161)
# Angiotensinogen = Angiotensinogen (Rattus norvegicus, UniProt P01015)
# [6] = biological target: Arginine vasopressin-induced protein 1 (Rattus norvegicus, UniProt Q8VDA6)
# Sequence of Arginine vasopressin-induced protein 1 (Q8VDA6 whole entry): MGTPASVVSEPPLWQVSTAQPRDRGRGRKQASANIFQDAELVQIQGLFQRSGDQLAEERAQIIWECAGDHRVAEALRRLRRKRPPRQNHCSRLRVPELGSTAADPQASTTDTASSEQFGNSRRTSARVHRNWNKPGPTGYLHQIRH
# [7] = biological target: Bombesin receptor subtype-3 (Rattus norvegicus, UniProt Q8K418)
# Sequence of Bombesin receptor subtype-3 (Q8K418 whole entry): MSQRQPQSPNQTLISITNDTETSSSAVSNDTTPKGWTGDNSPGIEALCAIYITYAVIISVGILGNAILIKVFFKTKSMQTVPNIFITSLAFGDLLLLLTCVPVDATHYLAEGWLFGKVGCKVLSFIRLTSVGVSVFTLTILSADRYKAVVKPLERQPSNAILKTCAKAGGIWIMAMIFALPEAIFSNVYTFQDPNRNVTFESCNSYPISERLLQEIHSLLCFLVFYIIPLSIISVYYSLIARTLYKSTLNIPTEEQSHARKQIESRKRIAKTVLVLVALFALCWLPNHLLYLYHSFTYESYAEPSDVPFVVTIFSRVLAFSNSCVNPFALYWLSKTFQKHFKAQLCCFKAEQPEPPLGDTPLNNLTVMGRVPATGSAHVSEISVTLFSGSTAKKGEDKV
# [8] = biological target: Voltage-dependent L-type calcium channel subunit alpha-1C (Rattus norvegicus, UniProt P22002)
# [9] = biological target: Chloride channel protein 1 (Rattus norvegicus, UniProt P35524)
# Sequence of Chloride channel protein 1 (P35524 whole entry): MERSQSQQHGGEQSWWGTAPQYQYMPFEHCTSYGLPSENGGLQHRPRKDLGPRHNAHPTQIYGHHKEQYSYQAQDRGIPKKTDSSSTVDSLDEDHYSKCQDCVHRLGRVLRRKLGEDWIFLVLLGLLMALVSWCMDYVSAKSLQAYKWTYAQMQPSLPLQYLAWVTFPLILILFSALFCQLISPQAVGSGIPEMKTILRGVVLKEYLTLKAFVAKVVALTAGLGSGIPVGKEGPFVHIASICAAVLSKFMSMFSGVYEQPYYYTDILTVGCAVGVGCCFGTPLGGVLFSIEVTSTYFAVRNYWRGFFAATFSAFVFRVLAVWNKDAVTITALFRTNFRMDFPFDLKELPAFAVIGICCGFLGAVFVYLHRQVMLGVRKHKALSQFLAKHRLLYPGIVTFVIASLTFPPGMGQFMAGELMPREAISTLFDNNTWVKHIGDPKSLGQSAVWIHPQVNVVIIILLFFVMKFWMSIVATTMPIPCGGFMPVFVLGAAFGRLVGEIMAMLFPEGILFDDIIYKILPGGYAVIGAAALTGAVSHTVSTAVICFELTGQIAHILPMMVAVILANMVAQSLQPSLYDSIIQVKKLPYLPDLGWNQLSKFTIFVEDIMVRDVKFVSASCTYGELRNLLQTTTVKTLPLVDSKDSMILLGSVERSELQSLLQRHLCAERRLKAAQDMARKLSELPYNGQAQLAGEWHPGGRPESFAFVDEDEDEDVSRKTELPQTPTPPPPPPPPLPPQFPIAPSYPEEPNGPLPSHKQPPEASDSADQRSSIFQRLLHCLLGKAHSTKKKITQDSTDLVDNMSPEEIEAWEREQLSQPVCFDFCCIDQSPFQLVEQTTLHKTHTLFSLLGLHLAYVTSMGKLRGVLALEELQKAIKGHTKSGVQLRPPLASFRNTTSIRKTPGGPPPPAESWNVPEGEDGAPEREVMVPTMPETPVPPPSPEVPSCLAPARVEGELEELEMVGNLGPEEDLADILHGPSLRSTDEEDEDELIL
# [10] = biological target: Cholecystokinin receptor type A (Rattus norvegicus, UniProt P30551)
# [11] = biological target: Pro-epidermal growth factor (Rattus norvegicus, UniProt P07522)
# Sequence of Pro-epidermal growth factor (P07522 974-1026 limits assumed): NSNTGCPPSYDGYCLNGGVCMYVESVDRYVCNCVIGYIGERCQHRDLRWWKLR
# Glutamate receptor 3 = Glutamate receptor 3 (Rattus norvegicus, UniProt P19492)
# Sequence of Glutamate receptor 3 (P19492 whole entry): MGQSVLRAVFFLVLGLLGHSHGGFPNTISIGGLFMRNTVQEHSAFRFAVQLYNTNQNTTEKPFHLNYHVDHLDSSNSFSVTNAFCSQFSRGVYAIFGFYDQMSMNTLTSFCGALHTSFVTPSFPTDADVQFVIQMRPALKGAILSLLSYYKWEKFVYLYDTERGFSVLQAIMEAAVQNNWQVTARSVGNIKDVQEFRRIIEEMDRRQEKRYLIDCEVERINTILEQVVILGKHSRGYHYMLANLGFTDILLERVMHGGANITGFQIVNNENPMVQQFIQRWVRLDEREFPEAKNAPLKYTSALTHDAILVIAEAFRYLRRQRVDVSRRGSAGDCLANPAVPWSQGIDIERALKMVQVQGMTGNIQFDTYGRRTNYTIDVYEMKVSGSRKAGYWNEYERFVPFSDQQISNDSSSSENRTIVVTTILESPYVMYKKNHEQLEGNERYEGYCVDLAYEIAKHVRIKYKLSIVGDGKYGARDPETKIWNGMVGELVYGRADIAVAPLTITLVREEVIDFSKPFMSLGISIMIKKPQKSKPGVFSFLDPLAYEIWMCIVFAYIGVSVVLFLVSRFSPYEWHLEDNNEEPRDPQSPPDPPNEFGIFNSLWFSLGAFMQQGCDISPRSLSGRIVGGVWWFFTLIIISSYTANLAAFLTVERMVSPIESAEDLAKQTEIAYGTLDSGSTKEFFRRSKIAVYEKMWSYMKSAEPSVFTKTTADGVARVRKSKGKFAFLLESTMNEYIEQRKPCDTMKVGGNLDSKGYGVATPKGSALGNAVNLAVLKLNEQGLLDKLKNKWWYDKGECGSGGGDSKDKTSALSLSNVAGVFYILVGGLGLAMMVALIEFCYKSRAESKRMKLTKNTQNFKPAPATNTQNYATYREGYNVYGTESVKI
# [12] = biological target: Glutamate receptor ionotropic, kainate 1 (Rattus norvegicus, UniProt P22756)
# [13] = biological target: Glutamate receptor ionotropic, NMDA 1 (Rattus norvegicus, UniProt P35439)
# [14] = biological target: Glycine amidinotransferase, mitochondrial (Rattus norvegicus, UniProt P50442)
# [15] = biological target: Phosphatidylinositol 3,4,5-trisphosphate 5-phosphatase 2 (Rattus norvegicus, UniProt Q9WVR3)
# Interleukin-18 = Interleukin-18 (Rattus norvegicus, UniProt P97636)
# Sequence of Interleukin-18 (P97636 whole entry): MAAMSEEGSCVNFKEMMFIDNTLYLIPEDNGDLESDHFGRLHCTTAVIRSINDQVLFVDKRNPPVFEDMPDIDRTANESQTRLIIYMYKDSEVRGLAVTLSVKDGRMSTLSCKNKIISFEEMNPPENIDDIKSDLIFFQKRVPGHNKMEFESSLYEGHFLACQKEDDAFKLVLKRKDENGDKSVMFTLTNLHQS
# Beta-nerve growth factor = Beta-nerve growth factor (Rattus norvegicus, UniProt P25427)
# [16] = biological target: Norepinephrine transporter (Rattus norvegicus, UniProt Q9JIA2)
# [17] = biological target: Sigma non-opioid intracellular receptor 1 (Rattus norvegicus, UniProt Q9R0C9)
# Sequence of Sigma non-opioid intracellular receptor 1 (Q9R0C9 whole entry): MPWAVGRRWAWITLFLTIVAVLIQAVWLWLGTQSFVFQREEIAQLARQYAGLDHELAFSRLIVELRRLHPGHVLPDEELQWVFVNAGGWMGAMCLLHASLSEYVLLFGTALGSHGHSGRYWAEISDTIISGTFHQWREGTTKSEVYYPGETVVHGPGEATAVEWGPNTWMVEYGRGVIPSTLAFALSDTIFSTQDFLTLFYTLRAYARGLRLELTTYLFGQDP
# [18] = biological target: Potassium voltage-gated channel subfamily H member 8 (Rattus norvegicus, UniProt Q9QWS8)
# Somatostatin = Somatostatin (Rattus norvegicus, UniProt P60042)
# Protachykinin-1 = Protachykinin-1 (Rattus norvegicus, UniProt P06767)
# VIP peptides = VIP peptides (Rattus norvegicus, UniProt P01283)
# Sequence of VIP peptides (P01283 125-152 limits assumed): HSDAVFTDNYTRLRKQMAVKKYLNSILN
# [19] = biological target: Beta-2 adrenergic receptor (Rattus norvegicus, UniProt P10608)
# Sequence of Beta-2 adrenergic receptor (P10608 whole entry): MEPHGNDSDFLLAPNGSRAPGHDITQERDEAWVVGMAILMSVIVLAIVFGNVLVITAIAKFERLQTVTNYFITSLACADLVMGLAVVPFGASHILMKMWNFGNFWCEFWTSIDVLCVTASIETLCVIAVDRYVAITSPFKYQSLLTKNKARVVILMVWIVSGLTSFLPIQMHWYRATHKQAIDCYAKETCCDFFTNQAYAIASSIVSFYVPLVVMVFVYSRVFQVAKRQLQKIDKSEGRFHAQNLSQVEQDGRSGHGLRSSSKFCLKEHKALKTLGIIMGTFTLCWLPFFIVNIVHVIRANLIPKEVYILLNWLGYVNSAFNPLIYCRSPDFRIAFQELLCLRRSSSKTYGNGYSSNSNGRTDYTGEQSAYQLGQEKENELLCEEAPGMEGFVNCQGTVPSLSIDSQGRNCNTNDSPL
compound,measurement,setting,value
"Oc1cc2c(cc1O)[C@@H]1c3ccccc3CN[C@@H]1CC2 [(+/-)-trans-10,11-dihydroxy-5,6,6a,7,8,12b-hexahydrobenzo[a]phenanthridine]",pKi,Adenosine kinase,< 5.00
same,pKi,[1],< 5.00
same,pKi,[2],< 5.00
same,pKi,[3],< 5.00
same,pKi,5'-nucleotidase,< 5.00
same,pKi,[4],< 5.00
same,pKi,Adenylate cyclase type 3,< 5.00
same,pKi,[5],6.64 and 6.00
same,pKi,Natriuretic peptides A,< 5.00
same,pKi,Angiotensinogen,< 5.00
same,pKi,[6],< 5.00
same,pKi,[7],< 5.00
same,pKi,[8],< 5.00
same,pKi,[9],< 5.00
same,pKi,[10],< 5.00
same,pKi,[11],< 5.00
same,pKi,Glutamate receptor 3,< 5.00
same,pKi,[12],< 5.00
same,pKi,[13],< 5.00
same,pKi,[14],< 5.00
same,pKi,[15],< 5.00
same,pKi,Interleukin-18,< 5.00
same,pKi,Beta-nerve growth factor,< 5.00
same,pKi,[16],< 5.00
same,pKi,[17],< 5.00
same,pKi,[18],< 5.00
same,pKi,Somatostatin,< 5.00
same,pKi,Protachykinin-1,< 5.00
same,pKi,VIP peptides,< 5.00
same,pKi,[19],< 5.00
